# Data published in US9096601B2 (CSPC Zhongqi Pharmaceutical Technology (Shijiazhuang) Co., …, priority 2010, dated 2015).
# Columns and labels:
# [1] = tested on: acute myelogenous leukemia cell strain MV4-11; test: In-vitro tumor cell proliferation inhibition, MTT; type: cell-based, human; conditions: 72 hours
# [2] = tested on: breast carcinoma cell strain BT474; test: In-vitro tumor cell proliferation inhibition, MTT; type: cell-based, human; conditions: 72 hours
# How it was run: (§1)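 A431, HCC827, SW620 and BT474 cells (HCC827 seeded at 6×10^4 cells/ml) treated overnight-after-plating with graded compound concentrations for 72 h at 37° C; MTT read at 570 nm. Inhibition calculated versus untreated control, triplicate wells, ≥3 repeats; reported as IC50 or inhibitory rate.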
# [3] = tested on: breast carcinoma cell strain MDA-MB-468; test: In-vitro tumor cell proliferation inhibition, MTT; type: cell-based, human; conditions: 72 hours
# [4] = tested on: chronic granulocytic leukemia cell strain K562; test: In-vitro tumor cell proliferation inhibition, MTT; type: cell-based, human; conditions: 72 hours
# [5] = tested on: colon cancer cell strain HCT116; test: In-vitro tumor cell proliferation inhibition, MTT; type: cell-based, human; conditions: 72 hours
# [6] = tested on: colon cancer cell strain SW480; test: In-vitro tumor cell proliferation inhibition, MTT; type: cell-based, human; conditions: 72 hours
# [7] = tested on: colon cancer cell strain SW620; test: In-vitro tumor cell proliferation inhibition, MTT; type: cell-based, human; conditions: 72 hours
# How it was run: as §1
# [8] = tested on: gastric cancer cell strain MK-45; test: In-vitro tumor cell proliferation inhibition, MTT; type: cell-based, human; conditions: 72 hours, read-out: MK45 (IC50)
# [9] = tested on: liver cancer cell strain Hep G2; test: In-vitro tumor cell proliferation inhibition, MTT; type: cell-based, human; conditions: 72 hours, read-out: HEPG2 (IC50)
# [10] = tested on: malignant melanoma cell strain A375; test: In-vitro tumor cell proliferation inhibition, MTT; type: cell-based, human; conditions: 72 hours
# [11] = tested on: squamous cell carcinoma cell strain A431; test: In-vitro tumor cell proliferation inhibition, MTT; type: cell-based, human; conditions: 72 hours
# How it was run: as §1
# [12] = tested on: human acute myelogenous leukemia cell strain MV4-11; test: In-vivo anti-tumor test, NOD-SCID mouse subcutaneously transplanted human leukemic solid tumor model; conditions: NOD-SCID mice, intragastric
# From the text: The object of this assay was to determine the in-vivo anti-tumor effect of the present compound. In this assay, a NOD-SCID mouse subcutaneously transplanted human leukemic solid tumor model was used to test the present compound 8-29 for the in-vivo anti-tumor activity. The used cell strain was human acute myelogenous leukemia cell strain MV4-11.
# NOD-SCID mice, aged 6-8 weeks, were inoculated with MV4-11 cell subcutaneously at the posterior segment of rib in a concentration of about 1×10^7 cells/0.1 ml per mouse. Upon the growth of the tumor up to 400-500 mm^3 (about 20 days), mice were grouped (n=6) and administrated intragastrically.
# Observation Indices: the mice were measured every three days for the weight, and the length and width of tumor, and the tumor volume was calculated as length×width^2×0.52. […] 3. Results
smiles,measurement,setting,value
CC(C)n1c(Nc2cccnc2)nc2cnc(Nc3ccc(N4CCN(C)CC4)cc3)nc21 [Compounds 8-29],IC50,[1],0.004 µM
same,IC50,[2],2.25 µM
same,IC50,[3],8.12 µM
same,IC50,[4],0.24 µM
same,IC50,[5],2.48 µM
same,IC50,[6],> 10 µM
same,IC50,[7],5.8 µM
same,IC50,[8],8.17 µM
same,IC50,[9],> 10 µM
same,IC50,[10],1.88 µM
same,IC50,[11],9.02 µM
same,in-vivo tumor growth inhibition,"[12]; MV4-11 xenograft, 5 mg/kg q.d. or higher (5, 10, 20 mg/kg q.d.)",substantial in-vivo growth inhibition
same,"toxicity (untoward reactions: weight reduction, exanthema, diarrhea)",[12]; 5-20 mg/kg q.d.,low toxicity
